Measured values as given in publication PMC5487684, “Safety, Pharmacokinetics, and Antiviral Activity of a Novel HIV Antiviral, ABX464, in Treatment-Naive HIV-Infected Subjects in a Phase 2 Randomized, Controlled Study” (Antimicrobial Agents and Chemotherapy, 2017).

Tests used:
HIV-1 = conditions: cited from earlier work
[1] = test system: HIV replication in macrophages; parameters: method as in PMID 25889234; conditions: in vitro; cited from earlier work
HIV replication in PBMCs = test system: HIV replication in PBMCs; parameters: method as in PMID 25889234; conditions: in vitro; cited from earlier work
[2] = Plasma pharmacokinetics of ABX464 and ABX464-NGlc in HIV-infected subjects; assay type: in vivo, human
Protocol: Plasma samples were analyzed for ABX464 and ABX464-NGlc using validated bioanalytical methods by Atlanbio (Saint Nazaire, France) according to good laboratory practices. Pharmacokinetic parameters were calculated by noncompartmental analysis (NCA), using Phoenix WinNonlin software (Pharsight Corporation) running on a personal computer. On day 1, the following PK parameters were generated: Cmax, the time to Cmax (Tmax), lag time (tlag), elimination rate constant (kel), area under the concentration-time curve (AUC) from time zero to time t (AUC0–t), AUC from time zero to infinity (AUC0–∞), apparent clearance (CL/F), and apparent volume of distribution (V/F). On the other days of PK assessment, only Cmax, Tmax, tlag, kel, and AUC0–t were generated. The secondary analysis concerned pharmacodynamic (PD) activity, as expressed by CD4 and CD8 levels and viral load across time. The HIV viral load was analyzed in the prequalified individual local study center laboratories. CD4 and CD8 cell counts were also determined in the local study center laboratories. With respect to the viral load, changes in the log-transformed viral load values between 24 h postdose and predose were calculated on each day, and a comparison between each dose level and pooled placebo data was made. Moreover, the rate of success (defined as a decrease in the viral load value of at least 0.5 log) was evaluated for each treatment (including placebo) and compared between treatments.

half-life (t1/2) ([2]; HIV-infected subjects, oral)	Bioavailability of ABX464-NGlc in human subjects relative to mice ([2]; human, in vivo)	Cmax of the metabolite relative to that of the parent compound ([2]; plasma)	Structure (SMILES)	Decrease in mean total HIV-1 DNA copy number in monocytes (HIV-1; 10 days of treatment) [fold]	Reduction in mean total HIV-1 DNA copy number in monocytes (HIV-1; 10 days of treatment) [%]	Effect on HIV viral load in plasma or CD4 T cell count (HIV-1)	Treated individuals with significant reductions in total HIV-1 DNA levels within monocytes (HIV-1)	50% inhibitory concentration in macrophage culture relative to parent drug [1]	Inhibition of HIV replication in macrophage culture [1]	Antiviral effect on HIV replication in PBMCs (HIV replication in PBMCs)
			Cn1cc(-c2cccc3cc(C(=O)N=C(N)N)ccc23)cn1	2.7	63	no significant effect	three of the six			
about 100 h	approximately 15 fold	approximately 160 fold	O=C(O)[C@H]1O[C@@H](N(c2ccc(OC(F)(F)F)cc2)c2ccc3cccc(Cl)c3n2)[C@H](O)[C@@H](O)[C@@H]1O [ABX464-NGlc, ABX464-N-glucuronide]					same 50% inhibitory concentration as the parent drug	able to inhibit HIV replication	no antiviral effect
